Test results published in patent US20220280578A1, “METHOD FOR TREATING ALZHEIMER'S DISEASE BY REGULATING INTESTINAL MICROORGANISMS” (SHANGHAI GREEN VALLEY PHARMACEUTICAL CO., LTD., priority 2019, published 2022).
“Also recorded” adds a separate entry of the source.

Tests used:
[1] = tested on: 5XFAD mice; test: JPH 203 in 5XFAD mice, Th1 cells in the brain by flow cytometry; type: in vivo, mouse; conditions: 6-month-old 5XFAD mice, 50 mg/kg intraperitoneal every day for one month, vs vehicle
Description: Flow cytometry sample preparation and analysis. Mice were anesthetized, blood samples were collected into EDTA-containing tubes, and red blood cells were removed using 1×red blood lysis buffer. Before tissue is collection, the brains were perfused with ice-cold PBS to avoid sampling the circulating blood immune cells, and the brains were removed, chopped into pieces and dissected according to the introduction of the Adult Brain Dissociation Kit (Miltenyi, Cat No. 130-107-677) using the gentleMACS dissociator (Miltenyi Biotec). The brain homogenate was filtered through a 70-μm cell strainer and centrifuged at 300×g for 5 min at 4° C. […] All samples were counted and adjusted to a density of 2-3 ×10^6/100 μL, labeled with a Live/Dead kit for 30 min, and then centrifuged at 500×g for 3 min at 4° C. […] Relevant negative control, Fluorescence Minus One (FMO) control and each fluorescence compensation sample were used to adjust fluorescence compensation and identify the populations of interest. Cells were acquired on a BD Aria III cytometer, and data were analyzed using FlowJo software.
Amino acids could be taken by immune cells through specific transporters. […] One month after the administration, the mice were euthanized, and the proportion of pro-inflammatory Th 1 cells in the brains of the mice in the control group and the JPH 203 treatment group was analyzed by flow cytometry. […]

[2] = target: T1, SLC7A5 (Mus musculus, UniProt Q9Z127); test: Uptake of 13C-labelled phenylalanine by CD4+ T cells; type: cell-based; conditions: 0.5 h incubation
T1 construct: endogenous in cells; host or cells: Primary naive CD4+ T cells from splenocytes of C57BL/6 mice, used as Th0 cells and IL-12-induced Th1 cells
T1 sequence (Q9Z127 whole entry): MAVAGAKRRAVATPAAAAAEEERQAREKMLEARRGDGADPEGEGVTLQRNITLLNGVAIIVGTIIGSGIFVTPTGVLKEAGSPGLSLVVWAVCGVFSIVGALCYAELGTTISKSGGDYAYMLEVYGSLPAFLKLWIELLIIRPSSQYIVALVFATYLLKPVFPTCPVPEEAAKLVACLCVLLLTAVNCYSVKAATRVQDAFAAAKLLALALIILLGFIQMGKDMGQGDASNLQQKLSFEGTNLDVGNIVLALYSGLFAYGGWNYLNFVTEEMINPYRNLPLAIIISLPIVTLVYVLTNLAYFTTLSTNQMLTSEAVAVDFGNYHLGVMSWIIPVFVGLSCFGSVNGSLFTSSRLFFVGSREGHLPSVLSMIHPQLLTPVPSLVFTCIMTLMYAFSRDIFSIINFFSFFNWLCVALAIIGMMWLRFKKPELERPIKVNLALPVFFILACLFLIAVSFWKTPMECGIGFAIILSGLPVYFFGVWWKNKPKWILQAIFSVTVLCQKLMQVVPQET
T1 sequence (P10852 whole entry partner): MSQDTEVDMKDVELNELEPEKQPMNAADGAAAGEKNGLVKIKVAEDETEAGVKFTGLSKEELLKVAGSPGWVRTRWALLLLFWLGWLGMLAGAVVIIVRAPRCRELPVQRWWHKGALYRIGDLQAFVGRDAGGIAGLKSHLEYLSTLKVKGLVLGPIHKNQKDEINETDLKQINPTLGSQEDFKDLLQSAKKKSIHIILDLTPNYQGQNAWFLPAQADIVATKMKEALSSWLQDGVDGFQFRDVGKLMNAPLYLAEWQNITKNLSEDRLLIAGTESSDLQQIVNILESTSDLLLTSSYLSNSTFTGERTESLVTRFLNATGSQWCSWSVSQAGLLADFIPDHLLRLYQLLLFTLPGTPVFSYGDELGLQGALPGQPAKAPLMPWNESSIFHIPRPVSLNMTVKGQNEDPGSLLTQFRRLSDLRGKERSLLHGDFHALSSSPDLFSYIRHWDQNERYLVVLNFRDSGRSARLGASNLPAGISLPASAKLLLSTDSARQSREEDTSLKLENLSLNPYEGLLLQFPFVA
Description: Uptake of phenylalanine. Naive CD4^+ T cells were separated from the is splenocytes of 8-month-old C57BL/6 female mice using the Naive CD4^+ T cell Isolation Kit (Stem Cell, Cat No. 19765) and were induced to Th1 differentiation by 20 ng/mL IL-12. After 3 days, a total of 5×10^5 cells/well Th1 cells and Th0 cells in 0.5 mL of RPMI-1640 medium were plated into 48-well plates. ^13C-labelled phenylalanine and 5 mM amino transporter inhibitor BCH were added into indicated wells. After 0.5 h, cells were collected and washed twice with ice-cold D-PBS. 50 μL deionized water was added and cells were lysed through freezing and thawing twice at −80° C. The cell lysate was centrifuged at 12000×g for 10 min and ^13C-labelled phenylalanine in the supernatant was analyzed by Mass spectrometry.

[3] = tested on: naive CD4+ T cells; test: In vitro differentiation and proliferation induced by phenylalanine and isoleucine; type: cell-based, mouse; conditions: amino acid added directly to naive CD4+ T cell culture; for Th1 cell proliferation: CellTrace
Description: In Vitro differentiation and proliferation induced by phenylalanine and isoleucine. Naive CD4^+ T cells were separated from the splenocytes of 8-month-old C57BL/6 female mice using the Naive CD4^+ T cell Isolation Kit (Stem Cell, #19765), and the cells were stained with CellTrace (Thermo Fisher, #C34557). A total of 1×10^5 cells/well in 0.2 mL of RPMI-1640 medium were plated in 96-well plates, and the culture medium was supplemented with cytokines or blocking antibodies. Th0: 10 ng/mL mIL-2; Th1:10 ng/mL mIL-2, 5000 ng/mL 11B11. Phenylalanine (final concentration, 2 mmol/L), isoleucine (final concentration, 2 mmol/L) and OM1 (final concentration, 100 μg/mL) were added into the indicated wells, respectively. After incubation at 37° C. in 5% CO2 for 5 days, cells were acquired on a BD Fortessa cytometer, and data were analyzed using FlowJo software.

[4] = tested on: WT mice (C57); test: Intraperitoneal injection of phenylalanine and isoleucine, blood Th1 cells; type: in vivo, mouse; conditions: intraperitoneal injection 50 mg/kg for 4 days

Row | uptake of 13C-labelled phenylalanine by CD4+ T cells [2] | Structure (SMILES) | proportion of pro-inflammatory Th1 cells in the mouse brain ([1]; 50 mg/kg) | proportion of pro-inflammatory Th1 cells in the mouse brain ([1]; listed as JPH 203, 50 mg/kg) | Th0 cell differentiation into Th1 cells [3] | Th1 cell proliferation [3] | Th1 cell count in the blood [4]
1 | blocked | Nc1cc(COc2c(Cl)cc(C[C@H](N)C(=O)O)cc2Cl)c2oc(-c3ccccc3)nc2c1 [JPH203] | effectively inhibits; also recorded: significantly downregulated | significantly reduces |  |  | 
2 |  | CC[C@H](C)[C@H](N)C(=O)O [isoleucine] |  |  | increased | increased | increased significantly
3 |  | N[C@@H](Cc1ccccc1)C(=O)O [phenylalanine] |  |  | increased | increased | increased significantly
